From US10166216B2 (Rigel Pharmaceuticals, Inc., priority 2006, dated 2019)

Biological target: Axl (Homo sapiens (Human), UniProt P30530)
Test: Phospho-Akt in-cell Western assay (Axl-antibody cross-linking stimulation)
Format: cell-based
Conditions: inhibition of Axl activity
How it was run: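 HeLa cells on poly-L-lysine, starved 24 hrs with Axl/Fc, pre-treated with compound 1 hr at 37° C., then stimulated 5 min with Axl primary/secondary antibody cluster. Fixed cells probed for phospho-Akt by chemiluminescent in-cell Western; signal normalized to crystal violet cell number.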

[1] = Hela cells, phospho-Akt readout, Table 5, formula (Ia3)
[2] = Hela cells, phospho-Akt readout, Table 1, formula (Ia1)
[3] = phospho-Akt in-cell Western assay

Sequence of Axl (P30530 26-894): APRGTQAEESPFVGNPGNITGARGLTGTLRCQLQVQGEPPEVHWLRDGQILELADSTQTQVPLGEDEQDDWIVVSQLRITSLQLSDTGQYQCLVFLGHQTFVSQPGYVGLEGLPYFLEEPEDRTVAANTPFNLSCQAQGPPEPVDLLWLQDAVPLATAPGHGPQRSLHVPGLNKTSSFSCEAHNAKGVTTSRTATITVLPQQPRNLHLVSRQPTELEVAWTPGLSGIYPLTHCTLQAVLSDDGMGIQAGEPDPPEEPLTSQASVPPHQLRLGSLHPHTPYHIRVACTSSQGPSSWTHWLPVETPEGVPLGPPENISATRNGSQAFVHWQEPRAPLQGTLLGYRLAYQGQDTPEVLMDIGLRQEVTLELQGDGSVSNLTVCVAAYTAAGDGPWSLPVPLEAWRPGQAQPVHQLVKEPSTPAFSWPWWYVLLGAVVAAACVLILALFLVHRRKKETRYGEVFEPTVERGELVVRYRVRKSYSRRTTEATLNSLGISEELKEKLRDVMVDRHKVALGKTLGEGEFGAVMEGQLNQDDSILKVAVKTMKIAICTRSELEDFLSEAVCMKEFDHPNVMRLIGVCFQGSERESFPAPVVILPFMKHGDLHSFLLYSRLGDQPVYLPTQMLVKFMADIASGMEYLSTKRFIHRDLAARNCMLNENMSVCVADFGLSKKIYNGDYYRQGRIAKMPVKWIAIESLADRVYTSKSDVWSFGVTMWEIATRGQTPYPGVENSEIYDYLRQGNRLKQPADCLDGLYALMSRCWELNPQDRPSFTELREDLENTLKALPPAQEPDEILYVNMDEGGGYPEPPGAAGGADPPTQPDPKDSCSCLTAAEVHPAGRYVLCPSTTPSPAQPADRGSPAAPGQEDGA

SMILES | IC50 [1] | other results
CCOC(=O)c1ccc(Nc2nc(N)n(-c3ccnc(Cl)c3)n2)cc1 [Compound 143, ethyl 4-(5-amino-1-(2-chloropyridin-4-yl)-1H-1,2,4-triazol-3-ylamino)benzoate] | > 20000 nM | –
CC(=O)c1ccc(Nc2nc(N)n(-c3cnc4ccccc4n3)n2)cc1 [Compound 144, 1-(4-(5-amino-1-(quinoxalin-2-yl)-1H-1,2,4-triazol-3-ylamino)phenyl)ethanone] | > 20000 nM | –
Nc1nc(Nc2ccc(C(=O)O)cc2)nn1-c1ccnc(N2CCC[C@H]2CN2CCCC2)c1 [Compound 146, (S)-4-(5-amino-1-(2-(2-(pyrrolidin-1-ylmethyl)pyrrolidin-1-yl)pyridin-4-yl)-1H-1,2,4-triazol-3-ylamino) benzoic acid] | > 20000 nM | –
CC(=O)c1ccc(Nc2nc(N)n(-c3ccccc3F)n2)cc1 [Compound 147, 1-(4-(5-amino-1-(2-fluorophenyl)-1H-1,2,4-triazol-3-ylamino)phenyl)ethanone] | > 20000 nM | –
Nc1nc(Nc2cc(F)c(F)c(F)c2)nn1-c1ccccn1 [Compound 149, 1-(pyridin-2-yl)-N^3-(3,4,5-trifluorophenyl)-1H-1,2,4-triazole-3,5-diamine] | > 20000 nM | –
Nc1nc(Nc2cccc(O)c2)nn1-c1ccccn1 [Compound 150, 3-(5-amino-1-(pyridin-2-yl)-1H-1,2,4-triazol-3-ylamino)phenol] | > 20000 nM | –
Nc1nc(Nc2ccc(CCC(=O)N3CCCC3)cc2)nn1-c1cnc2ccccc2n1 [Compound 152, 3-(4-(5-amino-1-(quinoxalin-2-yl)-1H-1,2,4-triazol-3-ylamino)phenyl)-1-(pyrrolidin-1-yl)propan-1-one] | > 20000 nM | –
COc1cc2ncnc(-n3nc(Nc4ccc(OC5CCCN(C)C5)cc4)nc3N)c2cc1OC (stereo not shown) [Compound 153, 1-(6,7-dimethoxyquinazolin-4-yl)-N^3-(4-(1-methylpiperidin-3-yloxy)phenyl)-1H-1,2,4-triazole-3,5-diamine] | < 1000 nM | –
CN1CCCC(Oc2ccc(Nc3nc(N)n(-c4nccc5ccccc45)n3)cc2)C1 (stereo not shown) [Compound 155, 1-(isoquinolin-1-yl)-N^3-(4-(1-methylpiperidin-3-yloxy)phenyl)-1H-1,2,4-triazole-3,5-diamine] | < 1000 nM | –
Nc1nc(Nc2ccc(N3CCOCC3)cc2)n(-c2nccc3ccccc23)n1 [Compound 157, 1-(isoquinolin-1-yl)-N^5-(4-morpholinophenyl)-1H-1,2,4-triazole-3,5-diamine] | – | IC50 (Hela cells, phospho-Akt readout, Table 6, formula (Ib3)): > 20000 nM
COc1cc2ncnc(-n3nc(Nc4ccc(N5CCOCC5)cc4)nc3N)c2cc1OC [Compound 158, 1-(6,7-dimethoxyquinazolin-4-yl)-N^3-(4-morpholinophenyl)-1H-1,2,4-triazole-3,5-diamine] | < 1000 nM | –
COc1cc2ncnc(-n3nc(Nc4ccc(N5CCOCC5)c(Cl)c4)nc3N)c2cc1OC [Compound 159, N^3-(3-chloro-4-morpholinophenyl)-1-(6,7-dimethoxyquinazolin-4-yl)-1H-1,2,4-triazole-3,5-diamine] | < 1000 nM | –
Nc1nc(Nc2ccc(N3CCOCC3)c(F)c2)nn1-c1nccc2ccccc12 [Compound 161, N^3-(3-fluoro-4-morpholinophenyl)-1-(isoquinolin-1-yl)-1H-1,2,4-triazole-3,5-diamine] | < 1000 nM | –
COc1cc2ncnc(-n3nc(Nc4ccc(N5CCOCC5)c(F)c4)nc3N)c2cc1OC [Compound 162, 1-(6,7-dimethoxyquinazolin-4-yl)-N^3-(3-fluoro-4-morpholinophenyl)-1H-1,2,4-triazole-3,5-diamine] | < 1000 nM | –
CN1CCN(Cc2ccc(Nc3nc(N)n(-c4nccc5ccccc45)n3)cc2)CC1 [Compound 163, 1-(isoquinolin-1-yl)-N^3-(4-((4-methylpiperazin-1-yl)methyl)phenyl)-1H-1,2,4-triazole-3,5-diamine] | < 1000 nM | –
CN(C)[C@@H]1CCN(c2ccc(Nc3nc(N)n(-c4nccc5ccccc45)n3)cc2)C1 [Compound 164, N^3-(4-((R)-3-(dimethylamino)pyrrolidin-1-yl)phenyl)-1-(isoquinolin-1-yl)-1H-1,2,4-triazole-3,5-diamine] | < 1000 nM | –
CN(C)[C@H]1CCN(c2ccc(Nc3nc(N)n(-c4nccc5ccccc45)n3)cc2)C1 [Compound 165, N^3-(4-((S)-3-(dimethylamino)pyrrolidin-1-yl)phenyl)-1-(isoquinolin-1-yl)-1H-1,2,4-triazole-3,5-diamine] | < 1000 nM | –

SMILES | IC50 [1] | other results
Nc1nc(Nc2ccc(-c3cnco3)cc2)nn1-c1nccc2ccccc12 [Compound 166, 1-(isoquinolin-1-yl)-N^3-(4-(oxazol-5-yl)phenyl)-1H-1,2,4-triazole-3,5-diamine] | > 20000 nM | –
CN1CCC(c2ccc(Nc3nc(N)n(-c4nccc5ccccc45)n3)cc2)CC1 [Compound 167, 1-(isoquinolin-1-yl)-N^3-(4-(1-methylpiperidin-4-yl)phenyl)-1H-1,2,4-triazole-3,5-diamine] | < 1000 nM | –
COc1cc2ncnc(-n3nc(Nc4ccc(C5CCN(C)CC5)cc4)nc3N)c2cc1OC [Compound 168, 1-(6,7-dimethoxyquinazolin-4-yl)-N^3-(4-(1-methylpiperidin-4-yl)phenyl)-1H-1,2,4-triazole-3,5-diamine] | < 1000 nM | –
COc1cc2c(-n3nc(Nc4ccc(C5CCN(C)CC5)cc4)nc3N)ncnc2cc1O [Compound 169, 4-(5-amino-3-(4-(1-methylpiperidin-4-yl)phenylamino)-1H-1,2,4-triazol-1-yl)-6-methoxyquinazolin-7-ol] | < 1000 nM | –
COc1cc2ncnc(-n3nc(Nc4ccc(N5CC[C@H](N(C)C)C5)cc4)nc3N)c2cc1OC [Compound 171, 1-(6,7-dimethoxyquinazolin-4-yl)-N^3-(4-((S)-3-(dimethylamino)pyrrolidin-1-yl)phenyl)-1H-1,2,4-triazole-3,5-diamine] | < 1000 nM | –
COc1cc2ncnc(-n3nc(Nc4ccc(CN5CCN(C)CC5)cc4)nc3N)c2cc1OC [Compound 173, 1-(6,7-dimethoxyquinazolin-4-yl)-N^3-(4-((4-methylpiperazin-1-yl)methyl)phenyl)-1H-1,2,4-triazole-3,5-diamine] | < 1000 nM | –
COc1cc2ccnc(-n3nc(Nc4ccc(C5CCN(C)CC5)cc4)nc3N)c2cc1OC [Compound 174, 1-(6,7-dimethoxyisoquinolin-1-yl)-N^3-(4-(1-methylpiperidin-4-yl)phenyl)-1H-1,2,4-triazole-3,5-diamine] | < 1000 nM | –
Nc1nc(Nc2ccc(OCCN3CCCC3)cc2)nn1-c1nc(Cl)nc2cc(Cl)sc12 [Compound 175, 1-(2,6-dichlorothieno[3,2-d]pyrimidin-4-yl)-N^3-(4-(2-pyrrolidin-1-ylethoxy)phenyl)-1H-1,2,4-triazole-3,5-diamine] | – | IC50 [2]: < 1000 nM
Nc1nc(Nc2ccc(OCCN3CCCC3)cc2)nn1-c1nc(Cl)nc2sccc12 [Compound 176, 1-(2-chlorothieno[2,3-d]pyrimidin-4-yl)-N^3-(4-(2-pyrrolidin-1-ylethoxy)phenyl)-1H-1,2,4-triazole-3,5-diamine] | – | IC50 [2]: < 1000 nM
Nc1nc(Nc2ccc(OCCN3CCCC3)cc2)nn1-c1nc(Cl)nc2ccsc12 [Compound 177, 1-(2-chlorothieno[3,2-d]pyrimidin-4-yl)-N^3-(4-(2-pyrrolidin-1-ylethoxy)phenyl)-1H-1,2,4-triazole-3,5-diamine] | – | IC50 [2]: < 1000 nM
Nc1nc(Nc2ccc(N3CCN([C@H]4C[C@@H]5CC[C@H]4C5)CC3)cc2)nn1-c1nc(Cl)nc2ccsc12 [Compound 179, 1-(2-chlorothieno[3,2-d]pyrimidin-4-yl)-N^3-(4-(4-((1S,2S,4R)-bicyclo[2.2.1]heptan-2-yl)-piperazin-1-yl)phenyl)-1H-1,2,4-triazole-3,5-diamine] | – | IC50 [3]: < 1000 nM
COc1cc2cnc(-n3nc(Nc4ccc(N5CCN(C)CC5)cc4)nc3N)nc2cc1OC [Compound 180, 1-(6,7-dimethoxyquinazolin-2-yl)-N^3-(4-(4-methylpiperazin-1-yl)phenyl)-1H-1,2,4-triazole-3,5-diamine] | – | IC50 [3]: < 1000 nM
COc1cc2cnc(-n3nc(Nc4ccc(N5CCN(C6CCCCC6)CC5)c(F)c4)nc3N)nc2cc1OC [Compound 181, 1-(6,7-dimethoxyquinazolin-2-yl)-N^3-(3-fluoro-4-(4-cyclohexylpiperazin-1-yl)phenyl)-1H-1,2,4-triazole-3,5-diamine] | – | IC50 [3]: < 1000 nM
Nc1nc(Nc2ccc(N3CCN(C4CC5CCC4C5)CC3)cc2)nn1-c1ncnc2c1sc1ncccc12 (stereo not shown) [Compound 184, 1-(pyrido[2,3-b]pyrimido[4,5-d]thiophene-4-yl)-N^3-(4-(4-(bicyclo[2.2.1]heptan-2-yl)-piperazin-1-yl)phenyl)-1H-1,2,4-triazole-3,5-diamine] | – | IC50 [3]: < 1000 nM
Nc1nc(Nc2ccc(N3CCN(C4CC5CCC4C5)CC3)cc2)nn1-c1ncnc2scc(-c3cccs3)c12 (stereo not shown) [Compound 185, 1-(5-(thiophen-2-yl)thieno[2,3-d]pyrimidin-4-yl)-N^3-(4-(4-(bicyclo[2.2.1]heptan-2-yl)-piperazin-1-yl)phenyl)-1H-1,2,4-triazole-3,5-diamine] | – | IC50 [3]: > 20000 nM
Nc1nc(Nc2ccc(N3CCN(C4CC5CCC4C5)CC3)cc2)nn1-c1ncnc2cc(-c3ccc(Cl)cc3)sc12 (stereo not shown) [Compound 186, 1-(6-(4-chlorophenyl)thieno[3,2-d]pyrimidin-4-yl)-N^3-(4-(4-(bicyclo[2.2.1]heptan-2-yl)-piperazin-1-yl)phenyl)-1H-1,2,4-triazole-3,5-diamine] | – | IC50 [3]: > 20000 nM
CC(C)(C)c1cc2ncnc(-n3nc(Nc4ccc(N5CCN(C6CC7CCC6C7)CC5)cc4)nc3N)c2s1 (stereo not shown) [Compound 187, 1-(6-(1,1-dimethylethyl)thieno[3,2-d]pyrimidin-4-yl)-N^3-(4-(4-(bicyclo[2.2.1]heptan-2-yl)-piperazin-1-yl)phenyl)-1H-1,2,4-triazole-3,5-diamine] | – | IC50 [3]: < 1000 nM
